# US20070202502A1, “Assay For Bipolar Affective Disorder” (priority 2004, published 2007)
# “Also recorded” adds a separate entry of the source.
# Test system: mouse FAT mRNA
# Experiment: FAT mRNA expression in whole brain of mice treated with lithium or valproate, quantitative real-time PCR
# Conditions: C57B16 mice, intraperitoneal once daily for 7 days (lithium 340 mg/kg/day; valproate 350 mg/kg/day)
structure (smiles),measurement,value
"CCCC(CCC)C(=O)O [valproate, 2-propylpentanoic acid]",effect on relative FAT mRNA expression level (relative to GAPDH mRNA),appear to reduce; also recorded: appears to be reduced
